Results: PubChem BioAssay AID1648 (Sanford-Burnham Center for Chemical Genomics, 2009)
Active and inactive are the calls of the source. The rule behind the calls is not given here.

These molecules were tested against Serine/threonine-protein kinase mTOR (Homo sapiens) (UniProt P42345) (assay: mTOR FRB domain ligand binding – biophysical, NMR (AID 1648)). Conditions: NMR binding to FRB domain, chemical shift.
Chain of Serine/threonine-protein kinase mTOR (Homo sapiens) (P42345 2015-2114): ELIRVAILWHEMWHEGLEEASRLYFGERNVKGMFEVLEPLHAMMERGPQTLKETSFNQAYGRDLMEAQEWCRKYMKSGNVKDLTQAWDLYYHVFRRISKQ

| Compound | Kd |
| --- | --- |
| O=C(O)c1ccc2c(c1)OCO2 | > 4 mM (inactive) |
| O=C(c1cccnc1Cl)N1CCOCC1 | > 4 mM (inactive) |
| NCc1ccc(N2CCOCC2)cc1 | > 4 mM (inactive) |
| CC1CCc2cc(F)ccc2N1C(=O)c1ccc(=O)[nH]n1 (stereo not drawn) | > 4 mM (inactive) |
| Nc1ccc2c(c1)CCCC2=O | > 4 mM (inactive) |
| Cc1ccc(N2C(=O)CC(=O)NC2=O)cc1 | > 4 mM (inactive) |
| CCOC(=O)CC1Sc2ccccc2NC1=O (stereo not drawn) | > 4 mM (inactive) |
| CC(=O)O[C@H]1C[C@@H](OC(C)=O)C(C)(C)C2C[C@@H](OC(C)=O)[C@@]3(C)C4=CC(=O)O[C@@H](c5ccoc5)[C@]4(C)CCC3[C@]21C (stereo partly drawn) | > 4 mM (inactive) |
| NC(c1ccccc1)c1ccccn1 (stereo not drawn) | > 4 mM (inactive) |
| Cc1nc2ccccc2c2c1C(=O)N(N)C2=O | > 4 mM (inactive) |
| O=C(O)c1ncoc1-c1ccccc1 | > 4 mM (inactive) |
| OCc1cc(F)cc2c1OCOC2 | > 4 mM (inactive) |
| O=C(O)c1cccnc1N1CCCC1 | > 4 mM (inactive) |
| Clc1ccc2c(N3CCNCC3)ccnc2c1 | > 4 mM (inactive) |
| O=c1[nH]cc(S(=O)(=O)Nc2ccccc2)c(=O)[nH]1 | > 4 mM (inactive) |
| COc1ccc2c(c1)=C(c1sc(N)nc1O)C(=O)N=2 | > 4 mM (inactive) |
| COn1c(=O)c(-c2ccco2)[n+]([O-])c2ccccc21 | > 4 mM (inactive) |
| C=C1C2CC[C@@]3(C)[C@H](c4ccoc4)OC(=O)C[C@]13O[C@H]1C[C@H](OC(C)=O)C(C)(C)[C@H](CC(=O)OC)[C@@]21C | > 4 mM (inactive) |
| Cc1cc(C)n2nc(Cc3ccccc3)nc2n1 | > 4 mM (inactive) |
| O=c1cc(-c2ccc(O)cc2)oc2cc(O)cc(O)c12 | > 4 mM (inactive) |
| CN1C(=O)C2CC=C(Cl)CC2C1=O (stereo not drawn) | > 4 mM (inactive) |
| C=C1C([C@]2(C)C(CC(=O)OC)[C@@](C)(COC(C)=O)OC(=O)C[C@@H]2OC(C)=O)[C@@H](OC=O)[C@H](OC(=O)C(O)C(C)CC)[C@@]2(C)[C@H](c3ccoc3)CC(=O)C12O (stereo partly drawn) | > 4 mM (inactive) |
| C=CC(C)(O)CC/C=C(\C)CCC=C(C)C (stereo not drawn) | > 4 mM (inactive) |
| COc1nc(N2CCOCC2)nc(N)c1[N+](=O)[O-] | > 4 mM (inactive) |
| CNC(=O)C1=NCCCc2cc(OC)c(OC)cc21 | > 4 mM (inactive) |
| COC(=O)c1cnccc1C(F)(F)F | > 4 mM (inactive) |

| Compound | Kd |
| --- | --- |
| Cn1c(SCC(N)=O)nc2c1c(=O)[nH]c(=O)n2C | > 4 mM (inactive) |
| CC(=O)O[C@H]1CC[C@@]2(C)C(=CC(=O)C3C4CCC(C(C)CCCC(C)C)[C@@]4(C)CCC32)C1 (stereo partly drawn) | > 4 mM (inactive) |
| Cc1c(-c2ccc(F)cc2)[n+](=O)c2c(n1[O-])CCC2 | > 4 mM (inactive) |
| c1ccc(-c2nnc(CNCc3ccco3)o2)cc1 | > 4 mM (inactive) |
| NC(=O)C1CCN(C(=S)c2ccccc2)CC1 | > 4 mM (inactive) |
| O=C(Nc1ccccc1N1CCCC1)c1cccnc1 | > 4 mM (inactive) |
| Nc1ccc2c(c1)COc1ccccc1O2 | > 4 mM (inactive) |
| CC(=O)O[C@H]1C[C@@]2(C)[C@@H](C[C@@H](O)C3[C@]2(C)CC[C@H]2[C@H](C)[C@H](O)CC[C@]32C)/C1=C(/CCC=C(C)C)C(=O)O (stereo partly drawn) | > 4 mM (inactive) |
| O=C1CNC(=O)/C1=C/c1ccc(O)cc1 | > 4 mM (inactive) |
| NC(=O)C1CCCN1S(=O)(=O)c1ccc(F)cc1 (stereo not drawn) | > 4 mM (inactive) |
| Nc1nc2ncc(CNc3ccc(C(=O)N[C@@H](CCC(=O)O)C(=O)O)cc3)nc2c(=O)[nH]1 | > 4 mM (inactive) |
| O=c1[nH]c(=O)c2[nH]cnc2[nH]1 | > 4 mM (inactive) |
| O=C(CC1SC(=O)NC1=O)Nc1ccccc1 (stereo not drawn) | > 4 mM (inactive) |
| Cn1c(CNc2ccccc2)cc(=O)n(C)c1=O | > 4 mM (inactive) |
| N#Cc1nc(-c2ccccc2Cl)oc1N1CCOCC1 | > 4 mM (inactive) |
| O=c1[nH]cc(S(=O)(=O)N2CCc3ccccc32)c(=O)[nH]1 | > 4 mM (inactive) |
| CCn1ccc(C(=O)Nc2nccs2)n1 | > 4 mM (inactive) |
| CN1CCN(C(=O)c2ccccc2C(=O)O)CC1 | > 4 mM (inactive) |
| COc1ccccc1-c1noc(-c2ccncc2)n1 | > 4 mM (inactive) |
| CCOc1ccc(C)cc1S(=O)(=O)n1ccc(C)n1 | > 4 mM (inactive) |
| O=C(Nc1ccccc1)NC1CCS(=O)(=O)C1 (stereo not drawn) | > 4 mM (inactive) |
| CC(CCC(=O)O)[C@H]1CCC2C3CC[C@@H]4CCCC[C@]4(C)C3CC[C@@]21C (stereo partly drawn) | > 4 mM (inactive) |
| COc1c(-c2coc3cc4c(cc3c2=O)CC(OC(C)=O)C(C)(C)O4)ccc2c1C=CC(C)(C)O2 (stereo not drawn) | > 4 mM (inactive) |
| COc1cc(C)c(Cl)cc1S(=O)(=O)N(C)C | > 4 mM (inactive) |
| Cc1cc(C(=O)N2CCN(c3ncccn3)CC2)c(C)o1 | > 4 mM (inactive) |
| O=S1(=O)NC(=NCc2ccco2)c2ccccc21 | > 4 mM (inactive) |

| Compound | Kd |
| --- | --- |
| CC1=C(/C=C/C(C)=C/C=C/C(C)=C/CO)C(C)(C)CCC1 | > 4 mM (inactive) |
| Cc1csc2nc(N)nn12 | > 4 mM (inactive) |
| CC(=O)O[C@@H]1CC2C(C)(C)[C@H](O)C[C@H](O)[C@]2(C)C2CC[C@@]3(C)C(=CC(=O)O[C@H]3c3ccoc3)[C@@]21C (stereo partly drawn) | > 4 mM (inactive) |
| O=C(O)C1CC(C2CCCCN2)CN2CCCCC12 (stereo not drawn) | > 4 mM (inactive) |
| NC(=O)c1ccc(N2C(=O)CCC2=O)cc1Cl | > 4 mM (inactive) |
| CCN1C(=O)c2c(C)nc3ccccc3c2C1=O | > 4 mM (inactive) |
| O=c1[nH]c2ccc(S(=O)(=O)NC3CC3)cc2[nH]1 | > 4 mM (inactive) |
| CN1CCN(c2ccc(N)cc2)CC1 | > 4 mM (inactive) |
| CC1Cc2nc(SCC(N)=O)n(C)c(=O)c2S1 (stereo not drawn) | > 4 mM (inactive) |
| CC(=O)c1sc2nc(N)nn2c1C | > 4 mM (inactive) |
| Cn1c(=O)c2ccccc2n(Cc2ccccc2F)c1=O | > 4 mM (inactive) |
| CS(=O)(=O)c1ccc2nc(N)sc2c1 | > 4 mM (inactive) |
| CC(C)Oc1ccc(NC(N)=O)cc1 | > 4 mM (inactive) |
| Cc1cc(=O)n(C(N)=S)[nH]1 | > 4 mM (inactive) |
| CSc1cccc(NC(=O)c2c(Cl)cnn2C)c1 | > 4 mM (inactive) |
| O=C(CN1CCOCC1)Nc1cccc(Br)c1 | > 4 mM (inactive) |
| COC(=O)c1cc(-c2c(C)nn(-c3ccccc3)c2C)n[nH]1 | > 4 mM (inactive) |
| COc1ccccc1NC(C)=O | > 4 mM (inactive) |
| Cc1ccc(-c2nc(N)n(C(=O)c3cccnc3)n2)cc1 | > 4 mM (inactive) |
| CC(=O)c1cc(CN2C(=O)c3ccccc3C2=O)cs1 | > 4 mM (inactive) |
| O=C(O[C@@H]1Cc2c(O)cc(O)cc2O[C@@H]1c1ccc(O)c(O)c1)c1cc(O)c(O)c(O)c1 | > 4 mM (inactive) |
| Cn1c(=O)n(CC(=O)N2CCOCC2)c2ccccc21 | > 4 mM (inactive) |
| CC(=O)Oc1cc2c(c(C)c1OC(C)=O)CC=C1[C@@]2(C)CC[C@@]2(C)C3C[C@](C)(C(=O)O)CC[C@]3(C)CC[C@]12C (stereo partly drawn) | > 4 mM (inactive) |
| O=C1CSC(=Nc2ccc(Cl)cc2)N1 | > 4 mM (inactive) |
| COc1cccc(O)c1O | > 4 mM (inactive) |
| O=C(O)CCn1cncn1 | > 4 mM (inactive) |
